# Assay results published in publication PMC7419507, “In vitro Cas9-assisted editing of modular polyketide synthase genes to produce desired natural product derivatives” (Nature Communications, 2020).
# Values joined by “and” are separate entries in the source; they are usually repeats but may differ in a detail not shown here. Equal values may be shown once.
# Tests used:
# Assay type in all cases: cell-based
# FKBP12 and mTOR = biological target: T1, FKBP12 and mTOR (Homo sapiens, UniProt P42345+P62942); experiment: Fluoppi analysis: induction of FKBP12-mTOR complex formation in transfected HeLa cells; conditions: raw data, one replicate per line
# T1 construct: host or cells: HeLa cells
# Procedure: Fluoppi harbours a tetrameric fluorescent protein hAG tag and an oligomeric assembly helper Ash tag to create detectable fluorescent foci in cells when there are interactions between two proteins fused to each tag[32].
# HeLa cells were maintained in DMEM (Fujifilm Wako, Osaka, Japan) supplemented with 10% FBS (Thermo Fisher Scientific, MA, USA) and 1% of Penicillin-Streptomycin (Thermo Fisher Scientific) in a humidified incubator with 5% CO2 at 37 °C. Harvested cells were plated at 1 × 10^6 cells/well in 6-well plate and incubated for 6 h. Then each 1.25 µg of phAG-mTOR and pAsh-FKBP12 (Medical and Biological Laboratories Co., Ltd., Aichi, Japan) was co-transfected with Lipofectamine 2000 reagent (Thermo Fisher Scientific) overnight. Next day, transfected cells were harvested and seeded in 384-well optical-bottom microplate (PerkinElmer, MA, USA) at a density of 3000 cells/well. After the 24 h incubation at 37 °C, cells were treated with different concentrations of compounds for 1 h. Cells were then fixed with 4% paraformaldehyde and stained with 1 µg/ml of Hoechst33342 (Thermo Fisher Scientific). Cell images of 9 visual fields/well were acquired with ×20 objective lens in Opera Phenix High-Content Screening System (PerkinElmer) and analysed by Harmony4.9 software (PerkinElmer). Because protein-protein interactions are quantified by measuring the aggregation of fluorescent elements in foci, fluorescent intensity in foci was normalised by total fluorescent intensity in each cell. EC50 values were calculated using TIBCO Spotfire 10.3 software (PerkinElmer).
# T lymphoma Jurkat cells = experiment: Cytotoxicity assay (CellTiter-Glo, 72 h), Jurkat; conditions: raw data (replicates)
# Procedure: (§1) Jurkat cells were cultured in RPMI1640 medium supplemented with 10% foetal bovine serum, penicillin (50 U/ml), streptomycin (50 μg/ml), and Glutamax. SKOV-3 cells were cultured in DMEM medium supplemented with 10% fetal bovine serum, penicillin (50 U/ml), and streptomycin (50 μg/ml). MESO-1 cells were cultured in RPMI1640 medium supplemented with 10% fetal bovine serum, penicillin (50 U/ml), and streptomycin (50 μg/ml). All cell lines were seeded in a 384-well plate at a density of 1000 cells/well in 20 μl of media and incubated at 37 °C in a humidified incubator with 5% CO2. After 4 h, 2-fold dilution samples resolved in DMSO were added to the cell culture at the concentration of 0.5% (0.1 μl) and incubated for 72 h. Cell viabilities were measured using a CellTiter-Glo luminescent cell viability assay and EnVision multilabel plate reader.
# [1] = Cytotoxicity assay (CellTiter-Glo, 72 h), Jurkat; conditions: human, Jurkat cells (T lymphoma)
# Procedure: as §1
# T1 sequence (P42345 2025-2114 limits assumed): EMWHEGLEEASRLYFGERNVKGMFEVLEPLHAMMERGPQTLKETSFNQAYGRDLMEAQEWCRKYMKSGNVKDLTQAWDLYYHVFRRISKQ
# T1 sequence (P62942 whole entry): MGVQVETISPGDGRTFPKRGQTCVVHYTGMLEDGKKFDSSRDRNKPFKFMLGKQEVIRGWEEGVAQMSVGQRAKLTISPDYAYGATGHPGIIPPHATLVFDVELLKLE
smiles,measurement,setting,value
"CO[C@H]1C[C@@H]2CC[C@@H](C)[C@@](O)(O2)C(=O)C(=O)N2CCCC[C@H]2C(=O)O[C@H]([C@H](C)C[C@@H]2CC[C@@H](O)[C@H](OC)C2)CC(=O)[C@H](C)/C=C(\C)[C@@H](O)[C@@H](OC)C(=O)[C@H](C)C[C@H](C)/C=C/C=C/C=C/1C [Compound 1, rapamycin, reference compound]",Foci intensity,FKBP12 and mTOR; conc 9.53674e-5 uM,0.01161 and 0.0103 and 0.03088
same,Foci intensity,FKBP12 and mTOR; conc 0.000190735 uM,0.00895 and 0.02271 and 0.02107
same,Foci intensity,FKBP12 and mTOR; conc 0.00038147 uM,0.01544 and 0.008548 and 0.02969
same,Foci intensity,FKBP12 and mTOR; conc 0.000762939 uM,0.009653 and 0.01526 and 0.05621
same,Foci intensity,FKBP12 and mTOR; conc 0.00152588 uM,0.01804 and 0.005306 and 0.005698
same,Foci intensity,FKBP12 and mTOR; conc 0.00305176 uM,0.0369 and 0.03402 and 0.3176
same,Foci intensity,FKBP12 and mTOR; conc 0.00610352 uM,0.06499 and 0.06076 and 0.02459
same,Foci intensity,FKBP12 and mTOR; conc 0.012207 uM,0.2364 and 0.2753 and 0.5339
same,Foci intensity,FKBP12 and mTOR; conc 0.0244141 uM,0.345 and 0.3003 and 0.3827
same,Foci intensity,FKBP12 and mTOR; conc 0.0488281 uM,0.3632 and 0.2888 and 0.4741
same,Foci intensity,FKBP12 and mTOR; conc 0.0976562 uM,0.3612 and 0.3367 and 0.3536
same,Foci intensity,FKBP12 and mTOR; conc 0.195312 uM,0.3566 and 0.4014 and 0.5261
same,Foci intensity,FKBP12 and mTOR; conc 0.390625 uM,0.3241 and 0.3575 and 0.3236
same,Foci intensity,FKBP12 and mTOR; conc 0.78125 uM,0.4221 and 0.4622 and 0.4598
same,Foci intensity,FKBP12 and mTOR; conc 1.5625 uM,0.3074 and 0.3503 and 0.4064
same,Foci intensity,FKBP12 and mTOR; conc 3.125 uM,0.4223 and 0.3831 and 0.4233
same,Foci intensity,FKBP12 and mTOR; conc 6.25 uM,0.3328 and 0.3828 and 0.4116
same,Foci intensity,FKBP12 and mTOR; conc 12.5 uM,0.2834 and 0.3194 and 0.3771
same,Foci intensity,FKBP12 and mTOR; conc 25 uM,0.3113 and 0.345 and 0.3681
same,Foci intensity,FKBP12 and mTOR; conc 50 uM,0.2989 and 0.4553 and 0.5427
same,Jurkat viability (%),T lymphoma Jurkat cells; conc 9.53674e-5 uM,52.8% and 57.4%
same,Jurkat viability (%),T lymphoma Jurkat cells; conc 0.000190735 uM,35.2% and 40.4%
same,Jurkat viability (%),T lymphoma Jurkat cells; conc 0.00038147 uM,39.9% and 44.6%
same,Jurkat viability (%),T lymphoma Jurkat cells; conc 0.000762939 uM,31.7%
same,Jurkat viability (%),T lymphoma Jurkat cells; conc 0.00152588 uM,102.7% and 105.0%
same,Jurkat viability (%),T lymphoma Jurkat cells; conc 0.00305176 uM,37.4%
same,Jurkat viability (%),T lymphoma Jurkat cells; conc 0.00610352 uM,31.8% and 34.7%
same,Jurkat viability (%),T lymphoma Jurkat cells; conc 0.012207 uM,28.7% and 28.4%
same,Jurkat viability (%),T lymphoma Jurkat cells; conc 0.0244141 uM,27.2% and 27.1%
same,Jurkat viability (%),T lymphoma Jurkat cells; conc 0.0488281 uM,23.4%
same,Jurkat viability (%),T lymphoma Jurkat cells; conc 0.0976562 uM,26.6% and 24.6%
same,Jurkat viability (%),T lymphoma Jurkat cells; conc 0.195312 uM,24.1% and 25.5%
same,Jurkat viability (%),T lymphoma Jurkat cells; conc 0.390625 uM,24.1% and 24.6%
same,Jurkat viability (%),T lymphoma Jurkat cells; conc 0.78125 uM,24.2%
same,Jurkat viability (%),T lymphoma Jurkat cells; conc 1.5625 uM,22.7% and 24.6%
same,Jurkat viability (%),T lymphoma Jurkat cells; conc 3.125 uM,21.8% and 23.2%
same,Jurkat viability (%),T lymphoma Jurkat cells; conc 6.25 uM,22.0% and 21.9%
same,Jurkat viability (%),T lymphoma Jurkat cells; conc 12.5 uM,19.2%
same,Jurkat viability (%),T lymphoma Jurkat cells; conc 25 uM,6.4% and 6.3%
same,Jurkat viability (%),T lymphoma Jurkat cells; conc 50 uM,0.5% and 0.178% and 0.2%
same,viability at 72 h,"[1]; 72 h, read-out: Plateau level of cell viability in the dose-response curve",~25%
same,"viability at 72 h, 9.53674e-05 uM","[1]; conc 9.53674e-5 uM, raw data (replicates)",51.5%
same,"viability at 72 h, 0.000190735 uM","[1]; conc 0.000190735 uM, raw data (replicates)",40.1%
same,"viability at 72 h, 0.00038147 uM","[1]; conc 0.00038147 uM, raw data (replicates)",41%
same,"viability at 72 h, 0.000762939 uM","[1]; conc 0.000762939 uM, raw data (replicates)",32.5%
same,"viability at 72 h, 0.00152588 uM","[1]; conc 0.00152588 uM, raw data (replicates)",100%
same,"viability at 72 h, 0.00305176 uM","[1]; conc 0.00305176 uM, raw data (replicates)",41.9%
same,"viability at 72 h, 0.00610352 uM","[1]; conc 0.00610352 uM, raw data (replicates)",30.7%
same,"viability at 72 h, 0.012207 uM","[1]; conc 0.012207 uM, raw data (replicates)",28.3%
same,"viability at 72 h, 0.0244141 uM","[1]; conc 0.0244141 uM, raw data (replicates)",25.3%
